Source: patent US10202371B2, “Oxazolidin-2-one-pyrimidine derivatives and the use thereof as phosphatidylinositol-3-kinase inhibitors” (Novartis AG, priority 2012, dated 2019)

How the values were obtained:
[1] = biological target: human mTOR (GST-mTOR) (Homo sapiens (Human), UniProt P42345); experiment: Binding assay mTor (Lanthascreen kinase binding assay); details: Tracer-314
Source text: Catalytically active human PI3Kα, PI3Kβ, PI3Kδ, and mTOR were cloned, expressed and purtified as described (Maira S M, Stauffer F, Brueggen J, Furet P, Schnell C, Fritsch C, Brachmann S, Chène P, de Pover A, Schoemaker K, Fabbro D, Gabriel D, Simonen M, Murphy L, Finan P, Sellers W, Garcia-Echeverria C (2008), Mol Cancer Ther. 7:1851-63 and Maira S M, Pecchi S, Brueggen J, Huh K, Schnell C, Fritsch C, Nagel T, Wiesmann M, Brachmann S, Dorsch M, Chène P, Schoemaker K, De Pover A, Menezes D, Fabbro D, Sellers W, Garcia-Echeverria C, Voliva CF (2011), Mol. Cancer Ther. accepted).
TR-FRET assays for protein kinases uses a long-lifetime lanthanide Terbium or Europium chelates as the donor species which overcome interference by compound autofluorescence or light scatter from precipitated compounds, by introducing a delay after excitation by a flashlamp excitation source. Results are often expressed as a ratio of the intensities of the acceptor and donor fluorophores. The ratiometric nature of such a value corrects for differences in assay volumes between wells, as well as corrects for quenching effects due to colored compounds.
Binding Assays are based on the binding and displacement of an Alexa Fluor® 647-labeled, ATP-competitive kinase inhibitors to the kinase of interest. Invitrogen's “Kinase Tracers” have been developed to address a wide range of kinase targets and are based on ATP-competitive kinase inhibitors, making them suitable for detection of any compounds that bind to the ATP site or to an allosteric site altering the conformation of the ATP site. Inhibitors that bind the ATP site include both Type I kinase inhibitors, which bind solely to the ATP site, and Type II inhibitors (e.g., Gleevec®/Imatinib, Sorafenib, BIRB-796), which bind to both the ATP site and a hydrophobic site exposed in the DFG-out (non-active) conformation. […] The sole exception was a substrate-competitive compound, and thus not a true allosteric inhibitor.
In contrast to most fluorescence-based kinase activity assays, LanthaScreen® Eu^3+ Kinase Binding Assays can be read continuously, which facilitates evaluation of compounds with slow binding kinetics. Also, unlike most activity assays, binding assays can be performed using either active or non-activated kinase preparations, which enables characterization of compounds that bind preferentially to non-activated kinases, such as Gleevec®/imatinib and some allosteric inhibitors.
In the Lanthascreen™ kinase binding assay, the donor (Eu^3+-anti-GST antibody) is excited at 340 nm and will transfer its energy to the acceptor (Alexa Fluor® 647-labeled ATP-competitive kinase inhibitor=Tracer-314). The emission from the Tracer-314 (Alexa Fluor® 647 inhibitor) can be monitored with a filter centered at 665 nm because it is located between the emission peaks of the donor, which is measured at 615/620 nm. The binding of both, the Tracer-314 and Eu^3+-anti-GST antibody, to the kinase results in a high degree of FRET from the Eu^3+-donor fluorophore to the Alexa-Fluor® 647-acceptor fluorophore on the Tracer-314. Binding of an inhibitor to the kinase competes for binding with the tracer, resulting in a loss of FRET.
50 nL of compound dilutions were dispensed onto white 384-well small volume polystyrene plate as described in section 2.2. Then 5 μL of GST-mTOR and Europium-anti-GST antibody followed by 5 μL of tracer-314 (final assay volume 10 μL) are incubated at RT. The standard reaction buffer for the Lanthascreen™ kinase binding assay contained 50 mM HEPES pH 7.5, 5 mM MgCl2, 1 mM EGTA, 0.01% Pluronic F-127. Plates are read 60 mins later in a Synergy2 reader using an integration time of 0.2 microseconds and a delay of 0.1 microseconds.
To calculate the emission ratio, the signal emitted at 665 nm from the acceptor (Alexa Fluor® 647-labeled Tracer-314) is divided by the signal emitted at 620 nm from the donor (Eu^3+ anti-GST antibody) […]

[2] = Photostability in light stability chamber; format: physicochemical; details: 1.0 mg/ml in ethanol, 19620 kJ/m^2 over 13 h, 15° C., UPLC 254 nm
Protocol: Samples investigated for light stability were treated in a light stability chamber (Atlas CPS+, Serial Number 0704013). Solutions of 1.0 mg/ml in ethanol were prepared for each molecule and aliquots of 0.5 mL were dispensed into suitable micro tubes. All measurements were done in duplicate and compared to a reference wrapped in aluminium foil during light exposure. Solutions were exposed to 19620 kJ/m^2 over 13 h. Samples were kept at 15° C. during the experiment. […] The peak areas were automatically integrated, and the degradation percentage calculated as the difference between the corresponding peak area percentage of the reference sample and the average peak area percentage of the exposed samples (duplicate).

Row | SMILES | IC50 [1] [nM] | % degradation in photostability assay (average) [2] [%]
1 | CC[C@H]1[C@H](c2ccc(OC)cc2)OC(=O)N1c1cc(-c2cnc(N)nc2C(F)(F)F)nc(N2CCOCC2)n1 (relative stereo) [Example 2, (4S*,5S*)-3-(2′-amino-2-morpholino-4′-(trifluoromethyl)-[4,5′-bipyrimidin]-6-yl)-4-ethyl-5-(4-methoxyphenyl)oxazolidin-2-one] | 2800 | 3
2 | C[C@H]1[C@H](c2nccs2)OC(=O)N1c1cc(-c2cnc(N)nc2C(F)(F)F)nc(N2CCOCC2)n1 [Example 1, (4S,5R)-3-(2′-Amino-2-morpholin-4-yl-4′-trifluoromethyl-[4,5′]bipyrimidinyl-6-yl)-4-methyl-5-thiazol-2-yl-oxazolidin-2-one] | 251 | 8
3 | COc1ccc([C@@H]2OC(=O)N(c3cc(-c4cnc(N)nc4C(F)(F)F)nc(N4CCOCC4)n3)[C@H]2CO)cc1 [Example 3, (4S,5S)-3-(2′-Amino-2-morpholino-4′-(trifluoromethyl)-[4,5′-bipyrimidin]-6-yl)-4-(hydroxymethyl)-5-(4-methoxyphenyl)oxazolidin-2-one] | 850 | 3
4 | C[C@H]1[C@H](c2ccccc2)OC(=O)N1c1cc(-c2cnc(N)nc2C(F)(F)F)nc(N2CCOCC2)n1 [Example 5] | 2250 | 17
5 | CC[C@H]1[C@H](c2nccs2)OC(=O)N1c1cc(-c2cnc(N)nc2C(F)(F)F)nc(N2CCOCC2)n1 [Example 7] | 2700 | 
6 | CCC1C(c2cccnc2)OC(=O)N1c1cc(-c2cnc(N)nc2C(F)(F)F)nc(N2CCOCC2)n1 (stereo not shown) [Example 8] | 960 | 
7 | Nc1ncc(-c2cc(N3C(=O)O[C@@H](c4ccccc4)[C@@H]3CO)nc(N3CCOCC3)n2)c(C(F)(F)F)n1 [Example 10] | 1010 | 7
8 | C[C@H]1[C@@H](c2nccs2)OC(=O)N1c1cc(-c2cnc(N)nc2C(F)(F)F)nc(N2CCOCC2)n1 [Example 11] | 870 | 
9 | COCCOc1ccc([C@@H]2OC(=O)N(c3cc(-c4cnc(N)nc4C(F)(F)F)nc(N4CCOCC4)n3)[C@H]2CO)cc1 [Example 12] | 750 | 12
10 | Nc1ncc(-c2cc(N3C(=O)O[C@@H](c4ccc(OCCO)cc4)[C@@H]3CO)nc(N3CCOCC3)n2)c(C(F)(F)F)n1 [Example 13] | 230 | 4
11 | Nc1ncc(-c2cc(N3C(=O)O[C@@H](c4ccc(OCCCO)cc4)[C@@H]3CO)nc(N3CCOCC3)n2)c(C(F)(F)F)n1 [Example 14] | 490 | 8
